Entries after “also recorded” stand apart in the source; their conditions may differ.
Test system: mouse aortic smooth muscle
Assay: Mouse aortic smooth muscle contraction in skinned muscle strips with dATP vs. ATP
Format: biochemical
Description: dATP has no affect on mouse aortic smooth muscle force development. To begin studying potential systemic effects of elevated dATP, we collaborated with Dr. Frank Brozovich (Mayo Clinic) to determine if dATP affects mouse aortic smooth muscle contraction.

## Nc1ncnc2c1ncn2[C@H]1C[C@H](O)[C@@H](COP(=O)(O)OP(=O)(O)OP(=O)(O)O)O1 [dATP, 2 deoxy-ATP]
Control measurements (data not shown)
  level of myosin light chain phosphorylation: did not change
dATP vs. ATP as the contractile substrate
  aortic smooth muscle contraction: did not differ; also recorded: did not alter contraction

Reference: patent US9868937B2, “Cell and gene based methods to improve cardiac function” (University of Washington, priority 2011, dated 2018)
